Marks after values point to notes of the source that are not given here. Residues, ends and D or L forms follow the SMILES beside them.
Each compound was assayed on HLA matched or autologous B cell line targets pre-pulsed with the peptide (assay: Standard CTL chromium release assay with restimulated lymphocytes from malaria-exposed Gambians (secondary CTL response)). Conditions: HLA-A2.
Format: cell-based, humans
Method: Peptides shown to bind to a particular HLA class I allele were tested for CTL recognition in assays using lymphocytes from malaria-exposed Gambians, as described previously^1. A minority of peptides, synthesized to correspond to a peptides binding motif were not tested in the relevant assembly assay but tested only for CTL recognition. Cells from 82 adult Gambians and 53 Gambian children, all exposed to malaria, were used in the course of these studies. The children and adults were HLA typed using cellular or molecular techniques as described previously^1. Peptides were incubated with cells either singly, or in pools as described^1 at concentrations of 10-100µM. Peptides could either be left with the cells for the duration of restimulation (as reported^1) or washed off after an hour. Cells were cultured for 1-3 weeks before a standard CTL chromium release assay^1 was performed using HLA matched or autologous B cell line targets pre-pulsed with the peptide to be tested. Peptides were tested either singly or in pools for CTL recognition.

Structure (SMILES) | epitope for a secondary cytotoxic T lymphocyte response (asterisk mark)
CC[C@H](C)[C@H](NC(=O)[C@H](CCCCN)NC(=O)[C@H](CCC(N)=O)NC(=O)[C@H](CC(C)C)NC(=O)[C@@H](N)Cc1ccc(O)cc1)C(=O)N[C@@H](CCCCN)C(=O)N[C@@H](CC(N)=O)C(=O)N[C@@H](CO)C(=O)N[C@@H](CC(C)C)C(=O)O [cp38] (H-YLQKIKNSL-OH) | cp38 *
CC[C@H](C)[C@H](NC(=O)[C@H](CCCCN)NC(=O)[C@H](CCC(N)=O)NC(=O)[C@H](CC(C)C)NC(=O)[C@@H](N)Cc1ccc(O)cc1)C(=O)N[C@@H](CCC(N)=O)C(=O)N[C@@H](CC(N)=O)C(=O)N[C@@H](CO)C(=O)N[C@@H](CC(C)C)C(=O)O [cp37] (H-YLQKIQNSL-OH) | cp37 *
CC(C)C[C@H](NC(=O)[C@H](Cc1ccc(O)cc1)NC(=O)[C@H](CCCCN)NC(=O)[C@@H](NC(=O)[C@H](CC(N)=O)NC(=O)CNC(=O)[C@H](CC(C)C)NC(=O)[C@@H](N)Cc1c[nH]cn1)C(C)C)C(=O)N[C@H](C(=O)O)C(C)C [tr26] (H-HLGNVKYLV-OH) | tr26 *
CC[C@H](C)[C@H](NC(=O)[C@@H](NC(=O)[C@H](CCCCN)NC(=O)[C@H](CC(C)C)NC(=O)[C@@H](N)Cc1ccc(O)cc1)[C@@H](C)O)C(=O)N[C@@H](CCC(N)=O)C(=O)N[C@@H](CC(N)=O)C(=O)N[C@@H](CO)C(=O)N[C@@H](CC(C)C)C(=O)O [cp36] (H-YLKTIQNSL-OH) | cp36 *
CC[C@H](C)[C@H](NC(=O)CN)C(=O)N[C@@H](C)C(=O)NCC(=O)NCC(=O)N[C@@H](CC(C)C)C(=O)N[C@@H](C)C(=O)N[C@@H](CC(C)C)C(=O)N[C@@H](CC(C)C)C(=O)O [tr39] (H-GIAGGLALL-OH) | tr39 *
